Measured values from PMC12440775 (Frontiers in Pharmacology, 2025).
Like-named read-outs stand apart in the source and are kept apart here.

Experiments:
[1] = Food effect on relative bioavailability of 480 mg FDV, two-period crossover (Part 2); assay type: in vivo, human; settings: for Tmax: median (range); for Tmax / AUC(0-t) / Vd/F / half-life: N = 7; for AUC(0-t) / Vd/F / half-life: mean (CV%); for Vd/F: read-out: Vz/F; for half-life: read-out: t½ (converted)
Description: Blood samples were taken pre-dose (0) and at prespecified time points after dosing (Figure 1). At each time point, approximately 4.9 mL of blood was drawn into evacuated collection tubes, containing ethylene diamine tetraacetate (EDTA) anticoagulant and labeled with sample identification information. The EDTA-anticoagulated blood samples were immediately placed on ice and centrifuged at 4 °C and approximately 2000–4,000 g for approximately 10 min in a refrigerated centrifuge as soon as possible after collection. The harvested plasma was split into two aliquots, immediately placed in appropriately labeled tubes, and stored at −20 °C or below until shipment.
Standard formulas for non-compartmental pharmacokinetic analysis provided by WinNonlin were used in determination of the maximum concentration (Cmax), time to maximum concentration (tmax), oral clearance (CL/F), mean residence time (MRTpo), and apparent volume distribution in terminal phase (Vz/F). The area under the plasma concentration–time curve (AUC) was calculated using a linear up/log down trapezoidal algorithm. The predicted concentration at the last time-point with quantifiable concentration was used for extrapolation of AUC. The fraction excreted as unchanged drug in urine (fe) was calculated as the percentage of the amount of drug excreted in urine as unchanged drug (Aet1–t2) compared to the administered dose ([Huang et al., 2008b]). […]

CYP3A4 = settings: therapeutic dose of 120 mg QD; cited from earlier work
[2] = 480 mg FDV in solution, fed vs fasted
[3] = male, human, plasma, oral, 480 mg, FDV 480 mg/fasted
[4] = male, human, plasma, oral, 480 mg, FDV 480 mg/fed

## C=C[C@@H]1C[C@]1(NC(=O)[C@@H]1C[C@@H](Oc2cc(-c3csc(NC(=O)C(C)C)n3)nc3c(Br)c(OC)ccc23)CN1C(=O)[C@@H](NC(=O)OC1CCCC1)C(C)(C)C)C(=O)O [FDV, Faldaprevir]
[1]; [2]
  Increase of AUC0–∞ (systemic exposure) after high-fat breakfast: 14%
  Increase of Cmax after high-fat and high-calorie breakfast: 9%
[1]; 480 mg FDV in solution, high-fat breakfast
  Effect of food on the rBA of FDV: no clinically relevant effect
[1]; FDV 480 mg/fasted
  Tmax: 4 (4–6) h
[1]; FDV 480 mg/fed
  Tmax: 6 (4–12) h
[1]; [3]
  AUC(0-t): 83400 ng·h/mL
  Vd/F: 161 L
  half-life: 19.6 h
[1]; male, human, plasma, oral, 480 mg, FDV 480 mg/fasted, read-out: tmax
  Tmax: 6 h
[1]; [4]
  AUC(0-t): 92000 ng·h/mL
  Vd/F: 132 L
  half-life: 18 h
[1]; male, human, plasma, oral, 480 mg, FDV 480 mg/fed, read-out: tmax
  Tmax: 4 h
CYP3A4
  Effect on CYP3A4: weak inhibitory effects
